For data set [1], the system named is CD47. The data set can be described thus: Flow cytometry, anti-human CD47 CC2C6 antibody binding on Raji cell surface. The format is cell-based. Here is the method: (§1) Binding between CD47 and SIRPα was studied by measuring the level of CD47 binding using any suitable method. Flow cytometric analysis is useful to quantify the level of binding of CD47 to antibody CC2C6, which is then subjected to an immune-staining procedure using fluorochrome-conjugated secondary antibody followed by analysis of the immune-staining signal with a flow cytometry instrument to obtain the level of the CD47-CC2C6 binding. In another method, analysis of CD47 is performed using SIRPα-Fc formed from SIRPα fused with human IgG1, which is then subjected to an immune-staining procedure using fluorochrome-conjugated secondary antibody against human IgG1, followed by analysis of the immune-staining signal. SIRPα is expressed on the surface of a myeloid cell such as macrophage, monocyte, neutrophil, or dendritic cell. Alternatively, SIRPα is fused with human IgG1 to form a SIRPα-Fc recombinant protein. […] An anti-cancer agent (e.g., rituximab) can be used together with a compound of formula (I). Useful anti-cancer agents are described above including anti-PD-L1 antibodies, anti-CD20 antibodies, anti-HER2 antibodies, anti-EGFR antibodies, and anti-CD47 antibodies. Other suitable anti-cancer agents are chemotherapeutic agents such as doxorubicin, epirubicin, idarubicin, methotrexate, mitoxantrone, oxaliplatin, and cyclophosphamide.
Human B-cell lymphoma Raji cells were purchased from BCRC, Taiwan. Raji cells were maintained at 37° C. under 5% CO2 in RPMI-1640 medium (Hyclone, Marlborough, Mass.) supplemented with 10% fetal bovine serum (FBS) (SAFC, Sigma-Aldrich, St. Louis, Mo.) containing 2 mM L-glutamine (Hyclone, Marlborough, Mass.), 10 mM HEPES (Hyclone, Marlborough, Mass.) and 1 mM sodium pyruvate (Hyclone, Marlborough, Mass.).
(§2) Antibody conjugates and extracellular domain of SIRPα used to analyze cell surface CD47 binding include anti-human CD47 CC2C6, 2D3, recombinant human SIRPα/CD172a Fc chimer protein, and anti-human IgG Fc. To determine inhibition of CD47 binding, cancer cells were treated with compounds of formula (I) at various concentrations for 4 days. Thereafter, the cells were washed with PBS containing 0.5% BSA (FACS buffer) followed by incubation with fluorochrome-labeled antibodies to human CD47 (i.e., CC2C6 and 2D3) at 1:50 dilution in FACS buffer for 30 minutes at 4° C. Compounds of formula (I) produced a dose-dependent inhibition of anti-CD47 CC2C6 antibody that recognized CD47 and SIRPα binding site on the tumor cell surface including B-cell lymphoma Raji cells, colon cancer cells DLD-1, and ovarian cancer SK-OV-3 cells (see FIGS. 1A, 1B, and 1C, respectively).

Data set [2] has as its system CD47. Put plainly: Flow cytometry, anti-human CD47 CC2C6 antibody binding on DLD-1 cell surface. The format is cell-based. Here is the method: as §1
Human colon cancer DLD-1 cells were obtained from NHRI IBPR HTS Lab, Taiwan. DLD-1 cells were maintained under the same conditions described immediately above.
as §2

For data set [3], the system named is CD47. The data set can be described thus: Flow cytometry, anti-human CD47 2D3 control antibody binding on Raji cell surface. The format is cell-based. Particulars: Raji cells. The method, then: as §2
The subject of data set [4] is human B-cell lymphoma Raji xenograft tumor. Put plainly: Raji xenograft anti-tumor efficacy and survival study (3 weeks treatment). The format is in vivo, NOD/SCID mice. The settings on record: Compound 34 100 mg/kg p.o. QD*5, rituximab 10 mg/kg i.p. 2QW. From the text: Human B-cell lymphoma Raji cells were used to evaluate the efficacy of Compound 34 and rituximab in treating cancer cells. Prior to injection into animals, the cancer cells were detected as free of Mycoplasma spp. NOD/SCID mice (BioLasco, Taiwan) were used for in vivo experiments due to their higher affinity of SIRPα to human CD47. The mice used in these studies were housed in Institutional Animal Care and Use Committees-approved facility at National Health Research Institutes in accordance with guidelines for the care and use of laboratory animals.
One million Raji cells in culture medium and matrigel (1:1, v/v) were injected subcutaneously into the left flank region of the mice (n=7 to 10 animals per group). Treatments were initiated after randomization with inclusion of tumors at approximately 100 mm^3. A dosing vehicle for Compound 34 was prepared using 10% DMA: 40% PEG400: 50% (1% CMC) (v/v/v) and was dosed orally (p.o.) at 100 mg/kg once a day, 5 days a week (Q.D.*5). Rituximab (Roche-Genentech, South San Francisco, Calif.) stock solution was diluted with PBS and dosed at 10 mg/kg twice a week (2QW) by intraperitoneal (i.p.) injection.
To evaluate anti-tumor efficacy and survival rates, mice were treated with vehicle control, 10 mg/kg rituximab (2QW, i.p.), 100 mg/kg Compound 34 (QD*5), or rituximab in combination with Compound 34. Treatment was discontinued at the end of 3 weeks. The mice were monitored for cancer growth and body weight once a week. Cancer growth was measured by volume with an electronic caliper. The volume was calculated as L×W^2/2, in which L is the length of the tumor and W is its width. Tumor size and animal body weight were measured once a week after cancer cell inoculation. Cancer response at the end of the study was calculated as tumor growth inhibition (TGI) using (1−T/C)*100, in which T is the mean tumor volume (mm^3) of the test group, and C is the mean tumor volume (mm^3) of the vehicle-treated group. […] For the survival study, treatment was discontinued at the end of 3 weeks. Thereafter, mice were followed up for tumor growth and body weight once a week. The mice were then sacrificed when tumor volume reached 2,000 mm^3 or body weight loss was greater than 10%. Kaplan-Meier plots were used as the study end point to calculate percentage of animals remaining in the study in term of the time. The median survival days for vehicle control and Compound 34 were 15.5 days and 18 days, respectively (FIG. 5E). Rituximab prolonged median survival days to 28 days after treatment discontinued (FIGS. 5C and 5E). Importantly, the combination of rituximab and Compound 34 further prolonged median survival days to 47 days (FIGS. 5D and 5E).

The nature of another data set: Mouse pk profiles. The data set is classed as in vivo.

pIC50: −log10 of the molar value. “Also recorded” adds a separate entry of the source.

On to `O=C1NC[C@H](c2ccc(-c3csc(C(F)(F)F)c3)c(F)c2F)N1c1ccc2[nH]cnc2c1` [Compound 34], for which the negative-log IC50 (pIC50) is 5.96 in the data set with CD47 [1] (B-cell Lymphoma (Raji cells), 4 days treatment, read-out: IC50, inhibition of CC2C6 binding) and 6.24 with CD47 [2] (Colon Cancer (DLD-1 cells), 4 days treatment, read-out: IC50, inhibition of CC2C6 binding). The figures for the “inhibition of binding of anti-human CD47 antibody CC2C6 (in words)” value in the data set on CD47 [1] (Raji cells) and in the data set on CD47 [2] (DLD-1 cells) were “specifically affected anti-CD47 CC2C6 antibody; also recorded: effectively inhibited” and “effectively inhibited”, respectively. Also, the “inhibition of binding of anti-human CD47 antibody 2D3 (in words)” value in the data set on CD47 [3] is recorded as “not by anti-CD47 control antibody 2D3; also recorded: did not inhibit”. Besides, the “tumor growth inhibition (TGI, % of control)” value in data set [4] (3 weeks) was 41.4%. Further, in data set [4] (treatment discontinued at 3 weeks), the median survival days was determined as 18 days. Besides, the figures for the “AUC Plasma” value in “Mouse pk profiles” (IV (2 mg/kg)) and in the data set “Mouse pk profiles” (PO (30 mg/kg)) were 8869 ng·h/g and 56451 ng·h/g, respectively. The compound also registered a clearance in the data set “Mouse pk profiles” (plasma, IV (2 mg/kg)) of 4.6 mL/min/kg. The peak level in the data set “Mouse pk profiles” (plasma, PO (30 mg/kg)) (Cmax) was 1980 ng/mL. The bioavailability in the data set “Mouse pk profiles” (plasma, PO (30 mg/kg) vs IV (2 mg/kg)) amounted to 43%. Besides, the half-life in the data set “Mouse pk profiles” (plasma, PO (30 mg/kg), read-out: T1/2 (h) Plasma (converted)) was 9.3 h.

For the origin of these results see patent US20230097801A1, “METHODS OF INCREASING CELL PHAGOCYTOSIS” (National Health Research Institutes, priority 2021, published 2023).
